Test results reported in patent US11980596B2 (priority 2017, dated 2024).

Legend:
Protein binding = assay type: in vitro ADME
Source text: Protein binding of esketamine was approximately 43% to 45%.

[1] = 14-day; 54 mg/day
Procedure: This study includes a single dose and 14-day repeated dose neurotoxicity studies with intranasally administered esketamine in female rats 12 to 14 weeks of age. These studies were conducted to investigate whether single or repeated intranasal administrations of esketamine induced neurodegenerative changes in the rat brain. The study results were used to estimate an esketamine exposure-based safety margin compared with the maximum dose of esketamine administered intranasally to depressed adult patients in clinical trials.
Each group of main study animals consisted of 12 female rats. Four satellite animals were added to the esketamine HCl-dosed groups of main study animals for TK purposes. The plasma exposure to esketamine was measured in these animals on the first and the last day of dosing at various time points up to and including 24 hours after the first instillation.

patients with TRD [2] = experiment: Dissociation by CADSS in SPRAVATO clinical trials (label); assay type: in vivo, human
Source text: The most common psychological effects of SPRAVATO were dissociative or perceptual changes (including distortion of time, space and illusions), derealization and depersonalization (61% to 75% of SPRAVATO-treated patients developed dissociative or perceptual changes based on the Clinician Administered Dissociative Symptoms Scale) [see Adverse Reactions (6.1)]. Given its potential to induce dissociative effects, carefully assess patients with psychosis before administering SPRAVATO; treatment should be initiated only if the benefit outweighs the risk.
SPRAVATO can cause dissociative symptoms (including derealization and depersonalization) and perceptual changes (including distortion of time and space, and illusions). In clinical trials, dissociation was transient and occurred on the day of dosing. Dissociation was evaluated by adverse event reports and the Clinician-Administered Dissociative States Scale (CADSS) questionnaire. A CADSS total score of more than 4 indicates presence of dissociative symptoms, and such an increase to a score of 4 or more occurred in a higher number of patients on esketamine compared to placebo during the short-term trials (see Table 5).

subjects with TRD = details: post dose
Procedure: (§1) The Clinician Administered Dissociative States Scale (CADSS) was measured prior to the start of each dose, at 40 minutes, and 1.5 hours postdose.

[3] = test system: subjects with MDD at imminent risk for suicide; experiment: MADRS total score, sustained response (Study […]2001); assay type: in vivo, human
Source text: Primary efficacy variable/Primary Time point: Change from baseline (Day 1, predose) to Day 1, 4-hours postdose in MADRS total score. The MADRS consists of 10 items that cover all of the core depressive symptoms, with each item scoring from 0 (item is not present or is normal) to 6 (severe or continuous presence of the symptom). A higher score represents a more severe condition.
The primary efficacy endpoint is the change in MADRS total score from baseline to Day 1: 4-hours postdose. MADRS total scores range from 0 to 60. […] As this is a phase 2a proof-of-concept study, statistical significance is based on a two-sided alpha level of 0.20. All p-values presented in this document are two-sided.
Sustained response is defined as at least 50% reduction from baseline in MADRS total score with onset on Day 1: 4 hours postdose that is maintained through the end of the double-blind phase (Day 25). Four subjects in the esketamine 84 mg group and 2 subjects in the placebo group had sustained response throughout the double-blind phase.

adult subjects with TRD = details: post dose
Procedure: The CADSS is an instrument for the measurement of present-state dissociative symptoms, and was administered to assess treatment-emergent dissociative symptoms. The CADSS consists of 23 subjective items, divided into 3 components: Depersonalization (Items 3 to 7, 20, and 23), derealization (Items 1, 2, 8 to 13, 16 to 19, and 21) and amnesia (Items 14, 15, and 22). Participant's responses were coded on a 5-point scale (0=not at all through to 4=extremely).
as §1

[4] = test system: subjects with MDD at imminent risk for suicide; experiment: MADRS suicide item ([…]2001); assay type: in vivo, human; details: 84 mg; Day 1: 4-hours postdose, Day 2 (DB), End Point (DB); two-sided level 0.20
Source text: • a. Changes from baseline to Day 2 and Day 25 for the MADRS total score • b. Changes from baseline to Day 1 4-hours postdose, Day 2 and Day 25 for the MADRS Suicide Item • c. Changes from baseline to Day 1 4-hours postdose, Day 2, and Day 25 for the clinical global judgment of suicide risk from the Suicide Ideation and Behavior Assessment Tool (SIBAT) • d. Sustained response (Onset of Clinical Response) defined as at least 50% reduction from baseline in MADRS total score with onset on Day 1 that is maintained through the end of the double-blind phase (Day 25) • e. Changes from baseline to Day 1 4-hours postdose, Day 2, and Day 25 for the Beck Scale for Suicidal Ideation (BSS) • f. Changes from baseline to Day 1 4-hours postdose and Day 25 for the Beck Hopelessness Scale
Results of the change from baseline over time for the suicide item from the MADRS assessment can be found in Attachment 1.

[5] = Pharmacokinetics of intranasal esketamine in healthy subjects (Example 9)
Procedure: Blood samples (4 mL each) for determination of esketamine and noresketamine plasma concentrations were collected into the appropriate collection tube (e.g., Vacutainer®) at timepoints 0.00, 0.12, 0.20, 0.37, 0.53, 0.67, 0.83, 1.00, 1.25, 1.50, 2.00, 3.00, 4.00, 6.00, 9.00, 12.00, 18.00, and 24.00 h. The total amount of blood to be drawn for clinical laboratory tests and PK evaluations is approximately 327 mL.
Plasma samples were analyzed for esketamine and noresketamine concentrations using the validated, specific and sensitive liquid chromatography coupled to tandem mass spectrometry (LC-MS/MS) achiral method of Example 8.
Serial PK blood samples (4 mL each) were collected for a 24-hour period from each subject (Periods 1, 2, and 3). […] Statistical Methods 1.6.4.1. Sample Size
The following key parameters of esketamine and noresketamine in plasma were calculated using noncompartmental methods and actual sampling times: Cmax, tmax, AUClast, AUC∞, t1/2,λ, and λz.

patients with TRD [6] = experiment: Sedation by MOAA/s in SPRAVATO clinical trials (label); assay type: in vivo, human; details: after dosing
Procedure: In clinical trials, 49% to 61% of SPRAVATO-treated patients developed sedation based on the Modified Observer's Alertness/Sedation scale (MOAA/s) [see Adverse Reactions (6.1)], and 0.3% of SPRAVATO-treated patients experienced loss of consciousness (MOAA/s score of 0).
Sedation was evaluated by adverse event reports and using the Modified Observer's Alertness/Sedation scale (MOAA/s). In the MOAA/s scale, 5 means “responds readily to name spoken in normal tone” and 0 means “no response after painful trapezius squeeze.” Any decrease in MOAA/s from pre-dose is considered to indicate presence of sedation, and such a decrease occurred in a higher number of patients on esketamine than placebo during the short-term trials (Table 4).

[7] = esketamine 84 mg minus placebo, ANCOVA LOCF
[8] = esketamine 84 mg, LOCF, ITT, N = 35
[9] = esketamine 84 mg, LOCF, ITT, N = 35, negative change = improvement

In the case of `CN[C@]1(c2ccccc2Cl)CCCCC1=O` [esketamine, (S)-2-(2-chlorophenyl)-2-(methylamino)cyclohexanone], the fraction unbound (Protein binding) is reported as 0.55 to 0.57, the “AUC-based safety margin compared with the maximum 84 mg clinical dose” value [1] is reported as roughly 11 fold and the “Cmax-based safety margin compared with the maximum 84 mg clinical dose” value [1] is reported as “approximately 17 fold”. The “Incidence of dissociation reported as severe in intensity” value (patients with TRD [2]; across studies) was “less than 4%”, the “Dissociation symptoms typically resolved by” value (patients with TRD [2]; after dosing) was no more than 1.5 h and the “Dissociative and perceptual change symptoms (CADSS) resolved by” value (subjects with TRD) was no more than 1.5 h. The “MADRS: least-square mean difference from placebo” value ([3]; 84 mg, Day 1, 4-hours postdose, ANCOVA) was −5.3 (2.10), the “MADRS total score, change to Day 1 (DB): 4 H, Diff. of LS Means (SE)” value [3, 7] was −5.3 (2.10) and the “MADRS total score, change to Day 2 (DB), Diff. of LS Means (SE)” value [3, 7] was −7.2 (2.85). The “MADRS total score, change to End Point (DB), Diff. of LS Means (SE)” value [3, 7] was −4.5 (3.14), the “MADRS total score, Day 1 (DB): 4 H, Median (Range)” value [3, 8] was 23.0 (7; 48) and the “MADRS total score, Day 2 (DB), Median (Range)” value [3, 8] was 18.0 (3; 42). The “MADRS total score, End Point (DB), Median (Range)” value [3, 8] was 8.0 (0; 44), the “MADRS total score, Change from Baseline to Day 1 (DB): 4 H, Median (Range)” value [3, 9] was −14.0 (−32; 1) and the “MADRS total score, Change from Baseline to Day 2 (DB), Median (Range)” value [3, 9] was −19.0 (−41; 1). The “MADRS total score, Change from Baseline to End Point (DB), Median (Range)” value [3, 9] was −25.0 (−46; 13), the “MADRS total score, Baseline (DB), Median (Range)” value ([3]; esketamine 84 mg, predose Day 1, ITT, N = 35) was 38.0 (27; 49) and the “Dissociative and perceptual change symptoms (CADSS) resolved by” value (adult subjects with TRD) was no more than 1.5 h. The “MADRS suicide item: change from baseline vs placebo” value [4] was “Statistically significant differences favoring esketamine”, the “Dose proportionality of mean plasma Cmax and AUC” value ([5]; 28-mg, 56-mg and 84-mg intranasal regimens) was “less than dose-proportional” and the “AUC (AUClast and AUC∞) variability” value ([5]; esketamine) was 25.0% to 30.4. The “Cmax variability (percent coefficient of variation)” value ([5]; esketamine, across the 3 treatment groups) was 35.7% to 36.7 and the “Sedative effects typically resolved by” value (patients with TRD [6]) was no more than 1.5 h.
